# According to the Kinase Knowledgebase extract (Sharma et al. 2016):
# Molecular target: MAPK14 (human) (UniProt Q16539)
# Assay: Inhibition of MAPK14 Kinase Activity
# Chain of MAPK14 (human) (Q16539 whole entry, looked up): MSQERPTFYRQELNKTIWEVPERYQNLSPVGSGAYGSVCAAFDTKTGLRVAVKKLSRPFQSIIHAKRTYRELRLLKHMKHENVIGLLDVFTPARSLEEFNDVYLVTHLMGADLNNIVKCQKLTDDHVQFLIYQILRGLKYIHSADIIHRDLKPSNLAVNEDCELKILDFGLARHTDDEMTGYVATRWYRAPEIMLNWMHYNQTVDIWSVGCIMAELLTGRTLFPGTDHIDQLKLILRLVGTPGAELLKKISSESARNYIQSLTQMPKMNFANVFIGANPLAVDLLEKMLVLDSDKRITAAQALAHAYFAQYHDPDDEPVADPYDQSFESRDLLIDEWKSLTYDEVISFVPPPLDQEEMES
row,SMILES,IC50 [nM]
1,Cc1ccc(C(=O)NC2CC2)cc1-n1ccnc(N[C@H](CC(=O)N2CCN(C)CC2)c2ccccc2)c1=O,25.1
2,Cc1ccc(C(=O)NC2CC2)cc1-n1ccnc(N[C@@H](c2ccccc2)[C@@H](C)CN2CCC(C(N)=O)CC2)c1=O,0.631
3,Cc1ccc(C(=O)NC2CC2)cc1-n1ccnc(NCc2cccc(CNC(=O)OC(C)(C)C)c2)c1=O,31.6
4,Cc1ccc(C(=O)NC2CC2)cc1-n1ccnc(NCc2ccc(CNC(=O)OC(C)(C)C)cc2)c1=O,501
5,CCC(C)NC(=O)c1ccc(C)c(-n2ccnc(NCc3ccc(N4CCN(C)CC4)cc3)c2=O)c1 (centres undefined),1000
6,Cc1ccc(C(=O)NC2CC2)cc1-n1ccnc(NC(c2ccccc2)C2CCN(C)CC2)c1=O (centres undefined),251
7,Cc1ccc(C(=O)NC2CC2)cc1-n1ccnc(N[C@@H](c2ccccc2)[C@@H](C)CN2CCCN(C)CC2)c1=O,1
8,CNCCCOc1ccccc1[C@@H]1CCCN1c1nccn(-c2cc(C(=O)NC3CC3)ccc2C)c1=O,25.1
9,CCC(CC)(Nc1nccn(-c2cc(C(=O)NC3CC3)ccc2C)c1=O)c1ccccc1OCCNC,0.398
10,CNCCCOc1ccccc1[C@H]1CCCN1c1nccn(-c2cc(C(=O)NC3CC3)ccc2C)c1=O,1.26
11,Cc1ccc(C(=O)NC2CC2)cc1-n1ccnc(NC(CC(=O)NC2CC2)c2ccccc2)c1=O (centres undefined),31.6
12,CCN(CC)CCOc1ccccc1C(C)(C)Nc1nccn(-c2cc(C(=O)NC3CC3)ccc2C)c1=O,0.631
13,Cc1ccc(C(=O)NC2CC2)cc1-n1ccnc(N[C@H](CC(=O)OC(C)(C)C)c2ccccc2)c1=O,20
14,Cc1ccc(C(=O)NC2CC2)cc1-n1ccnc(NCC2Cc3ccccc3CN2)c1=O (centres undefined),126
